Data: article PMC8381290 (Journal of medicinal chemistry, 2021)

Legend:
[1] = format: in vivo, mouse; conditions: for distribution within ocular tissue / accumulation in the eye compared with emixustat: single 380 nmol i.p. dose
[2] = 3 h after single 380 nmol i.p. dose
RPE65 [3] = biological target: T1, RPE65 (Bos taurus, UniProt Q28175); conditions: RPE65 inhibition; cited from earlier work
RPE65 [4] = biological target: T1, RPE65; assay: RPE65 retinoid isomerase activity assay; conditions: ratio of IC50 values

T1 sequence (Q28175 whole entry): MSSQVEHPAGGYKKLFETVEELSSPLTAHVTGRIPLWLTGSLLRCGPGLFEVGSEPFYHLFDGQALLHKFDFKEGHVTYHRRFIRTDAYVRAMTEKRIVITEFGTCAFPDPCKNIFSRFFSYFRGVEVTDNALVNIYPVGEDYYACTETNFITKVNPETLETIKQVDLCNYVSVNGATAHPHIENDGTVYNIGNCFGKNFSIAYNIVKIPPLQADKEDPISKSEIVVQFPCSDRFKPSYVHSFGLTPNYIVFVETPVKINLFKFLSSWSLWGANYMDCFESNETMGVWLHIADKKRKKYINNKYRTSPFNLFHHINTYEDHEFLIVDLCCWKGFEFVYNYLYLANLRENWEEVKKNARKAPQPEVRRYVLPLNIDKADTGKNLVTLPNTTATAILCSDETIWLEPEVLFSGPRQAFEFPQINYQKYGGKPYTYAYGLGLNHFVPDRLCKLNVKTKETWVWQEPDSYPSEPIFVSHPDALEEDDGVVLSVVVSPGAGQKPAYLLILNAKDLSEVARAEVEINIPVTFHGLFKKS

| SMILES | distribution within ocular tissue [1] | initial plasma (serum) level [2] | accumulation in the eye compared with emixustat [1] | further results |
| --- | --- | --- | --- | --- |
| NCCC(O)c1ccc(F)c(OCC2CCCCC2)c1 (stereo not shown) [Compound 49, 3-Amino-1-(3-(cyclohexylmethoxy)-4-fluorophenyl)propan-1-ol] | poorest distribution within ocular tissue | highest initial plasma levels |  |  |
| NCCC(O)c1cccc(OCC2CCC(F)(F)CC2)c1 (stereo not shown) [Compound 57, 3-Amino-1-(3-((4,4-difluorocyclohexyl)methoxy)phenyl) propan-1-ol] |  |  | accumulate more | eye amount relative to compounds 24 and 49 ([1]; day 7 after single i.p. dose): 10 times; eye amount relative to emixustat ([1]; day 7 after single i.p. dose): 5 times |
| CCCC(CCC)COc1cccc([C@H](O)CCN)c1 [(R)-MB-004] |  |  |  | IC50 (RPE65 [3]): 106 ± 16 nM |
| CCCC(CCC)COc1cc([C@H](O)CCN)ccc1F [Compound 24, (R)-3-Amino-1-(4-fluoro-3-((2-propylpentyl)oxy)phenyl)propan-1-ol] | poorest distribution within ocular tissue | highest initial plasma levels |  | inhibitory potency relative to racemic emixustat (RPE65 [4]): 3 times |
| [2H]C([2H])(N)CC(O)c1cccc(OCC2CCC(F)(F)CC2)c1 (stereo not shown) [Compound 59, 3-Amino-1-(3-((4,4-difluorocyclohexyl)methoxy)phenyl)propan-3,3-d2-1-ol] |  |  | accumulate more |  |
